Data reported in article PMC7316778 (Nature Communications, 2020).
pIC50: −log10 of the molar value. Values joined by “and” are separate entries in the source; they are usually repeats but may differ in a detail not shown here. Identical values can stand only once. Like-named read-outs stand apart in the source and are kept apart here.

What was measured:
[1] = target: ACVR2A (Homo sapiens, UniProt P27037); assay: SelectScreen kinase assay
Procedure: (§1) Selectivity profiling assays were performed by the Invitrogen SelectScreen™ Services. […] The concentration of ATP was selected to be equal to the KM, unless indicated otherwise.

[2] = test system: FES^S700C HL-60 cells; assay: CD11b surface expression, PMA-induced macrophage differentiation; format: cell-based, human; conditions: for CD11b-positive cells (%): Figure 6d, S700C
[3] = test system: panel of 380 wild-type, mammalian kinases; assay: SelectScreen selectivity profiling, whole panel; format: biochemical
Procedure: Supplementary Figure 4. Single-point selectivity screen of WEL028 on a panel of 380 kinases. All data were obtained from SelectScreen™ selectivity profiling service. Assays were performed at 1 μM WEL028 with 1 h preincubation. The ATP concentration was equal to the kinase K M, except for those indicated († = LanthaScreen technology, no ATP; * = 100 µM ATP; ** = 10 µM ATP). Values represent mean percentage inhibition compared to vehicle -treated control (n = 2). […]
inhibition from minimum (0%, white) to maximum (100%, red). Source data are provided as a Source

[4] = test system: WT HL-60 cells; assay: CD11b surface expression, PMA-induced macrophage differentiation; format: cell-based, human; conditions: Figure 6d
[5] = target: ICK (Homo sapiens, UniProt Q9UPZ9); assay: SelectScreen kinase assay
Procedure: as §1

[6] = target: PIP5K1C (Homo sapiens, UniProt O60331); assay: SelectScreen kinase assay
Procedure: as §1

[7] = target: T1, EPHB4 (Homo sapiens, UniProt P54760); assay: SelectScreen kinase assay; conditions: for Inhibition at 1 µM (%): EPHB4, ZLYTE, ATP Km app
T1 sequence (P54760 16-987): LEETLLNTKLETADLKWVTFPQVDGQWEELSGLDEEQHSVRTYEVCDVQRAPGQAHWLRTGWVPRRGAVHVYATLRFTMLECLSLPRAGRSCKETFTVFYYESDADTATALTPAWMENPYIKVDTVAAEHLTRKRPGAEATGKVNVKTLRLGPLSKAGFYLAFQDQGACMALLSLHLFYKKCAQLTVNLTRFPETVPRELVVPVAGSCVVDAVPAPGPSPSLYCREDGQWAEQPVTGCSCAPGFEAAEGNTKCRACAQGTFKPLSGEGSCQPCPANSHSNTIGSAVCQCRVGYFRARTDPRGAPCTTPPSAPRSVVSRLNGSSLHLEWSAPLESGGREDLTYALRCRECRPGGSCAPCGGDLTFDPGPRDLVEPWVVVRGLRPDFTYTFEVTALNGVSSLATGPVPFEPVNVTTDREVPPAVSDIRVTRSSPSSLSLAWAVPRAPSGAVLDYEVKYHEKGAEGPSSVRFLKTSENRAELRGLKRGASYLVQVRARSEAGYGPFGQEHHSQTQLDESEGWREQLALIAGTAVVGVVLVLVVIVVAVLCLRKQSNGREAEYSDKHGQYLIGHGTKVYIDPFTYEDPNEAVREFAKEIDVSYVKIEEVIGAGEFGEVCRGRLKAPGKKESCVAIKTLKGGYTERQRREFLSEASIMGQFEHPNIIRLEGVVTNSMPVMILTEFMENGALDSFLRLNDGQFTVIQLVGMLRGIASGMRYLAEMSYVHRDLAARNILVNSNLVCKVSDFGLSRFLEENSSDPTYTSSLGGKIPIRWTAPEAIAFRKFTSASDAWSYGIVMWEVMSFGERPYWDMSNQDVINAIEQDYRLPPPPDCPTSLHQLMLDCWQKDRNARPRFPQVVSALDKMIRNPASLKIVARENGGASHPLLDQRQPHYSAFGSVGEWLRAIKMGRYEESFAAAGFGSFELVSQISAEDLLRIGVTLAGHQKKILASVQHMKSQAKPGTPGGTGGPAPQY
Procedure: as §1

[8] = target: MKNK2 (MNK2) (Homo sapiens, UniProt Q9HBH9); assay: SelectScreen kinase assay
Procedure: as §1

[9] = target: FGFR1 (Homo sapiens, UniProt P11362); assay: SelectScreen kinase assay
Procedure: as §1

[10] = target: ERBB2 (HER2) (Homo sapiens, UniProt P04626); assay: SelectScreen kinase assay; conditions: for Inhibition at 1 µM (%): ERBB2 (HER2), ZLYTE, ATP Km app
Procedure: as §1

[11] = target: MAPKAPK2 (Homo sapiens, UniProt P49137); assay: SelectScreen kinase assay
Procedure: as §1

[12] = test system: BRAF; assay: SelectScreen kinase assay; conditions: IC50 on that kinase divided by IC50 on FES^S700C
Procedure: as §1

[13] = target: BRAF (Homo sapiens, UniProt P15056); assay: SelectScreen kinase assay
Procedure: as §1

[14] = target: CDK16 (PCTK1)/cyclin Y (Homo sapiens, UniProt Q00536); assay: SelectScreen kinase assay
Procedure: as §1

[15] = target: ADCK3 (Homo sapiens, UniProt Q8NI60); assay: SelectScreen kinase assay
Procedure: as §1

[16] = 1 h, 1 μM WEL028, 1 h preincubation

Sequence of BRAF (Homo sapiens, UniProt P15056) (P15056 whole entry, species assumed): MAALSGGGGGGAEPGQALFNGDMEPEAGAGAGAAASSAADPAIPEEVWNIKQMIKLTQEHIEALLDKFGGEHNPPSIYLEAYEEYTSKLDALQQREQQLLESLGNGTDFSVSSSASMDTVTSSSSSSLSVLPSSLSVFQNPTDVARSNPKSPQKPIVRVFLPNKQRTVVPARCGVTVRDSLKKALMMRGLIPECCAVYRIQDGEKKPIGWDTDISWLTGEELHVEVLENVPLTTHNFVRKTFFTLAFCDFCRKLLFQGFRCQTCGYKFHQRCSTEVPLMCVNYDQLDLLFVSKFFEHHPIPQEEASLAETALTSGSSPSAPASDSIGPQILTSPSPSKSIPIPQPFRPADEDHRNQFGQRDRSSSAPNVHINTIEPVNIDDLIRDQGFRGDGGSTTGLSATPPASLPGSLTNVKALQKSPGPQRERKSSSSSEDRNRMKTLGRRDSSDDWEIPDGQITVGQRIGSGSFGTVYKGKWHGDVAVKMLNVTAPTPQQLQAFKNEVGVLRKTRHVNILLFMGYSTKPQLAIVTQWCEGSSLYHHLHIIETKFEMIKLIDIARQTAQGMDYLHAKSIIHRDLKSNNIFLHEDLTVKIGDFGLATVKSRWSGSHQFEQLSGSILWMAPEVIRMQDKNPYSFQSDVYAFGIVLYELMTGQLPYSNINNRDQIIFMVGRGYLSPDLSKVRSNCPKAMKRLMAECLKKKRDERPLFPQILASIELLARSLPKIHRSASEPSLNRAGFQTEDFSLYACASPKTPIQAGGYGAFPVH
Sequence of FGFR1 (P11362 22-822): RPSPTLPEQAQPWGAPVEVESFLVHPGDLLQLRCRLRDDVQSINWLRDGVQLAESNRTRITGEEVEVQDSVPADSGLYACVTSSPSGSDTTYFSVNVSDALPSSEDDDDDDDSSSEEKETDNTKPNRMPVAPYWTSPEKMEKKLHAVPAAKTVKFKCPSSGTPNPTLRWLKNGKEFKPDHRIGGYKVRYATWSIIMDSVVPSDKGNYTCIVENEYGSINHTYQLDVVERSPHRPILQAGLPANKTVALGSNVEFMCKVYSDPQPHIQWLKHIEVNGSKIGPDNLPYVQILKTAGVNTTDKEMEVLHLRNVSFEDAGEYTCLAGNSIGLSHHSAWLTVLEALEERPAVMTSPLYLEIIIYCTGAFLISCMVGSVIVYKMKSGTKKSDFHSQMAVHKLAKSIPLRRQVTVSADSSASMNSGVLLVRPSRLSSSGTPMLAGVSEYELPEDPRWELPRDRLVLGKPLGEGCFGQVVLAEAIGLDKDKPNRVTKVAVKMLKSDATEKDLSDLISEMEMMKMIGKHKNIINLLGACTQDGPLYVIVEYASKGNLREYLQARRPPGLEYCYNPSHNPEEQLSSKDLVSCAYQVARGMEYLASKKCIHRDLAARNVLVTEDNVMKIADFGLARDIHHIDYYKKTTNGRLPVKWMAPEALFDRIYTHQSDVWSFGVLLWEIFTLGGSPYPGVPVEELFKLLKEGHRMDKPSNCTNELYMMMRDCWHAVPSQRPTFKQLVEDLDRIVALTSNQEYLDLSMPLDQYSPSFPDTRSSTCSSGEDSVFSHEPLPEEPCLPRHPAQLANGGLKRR
Sequence of ACVR2A (P27037 20-513): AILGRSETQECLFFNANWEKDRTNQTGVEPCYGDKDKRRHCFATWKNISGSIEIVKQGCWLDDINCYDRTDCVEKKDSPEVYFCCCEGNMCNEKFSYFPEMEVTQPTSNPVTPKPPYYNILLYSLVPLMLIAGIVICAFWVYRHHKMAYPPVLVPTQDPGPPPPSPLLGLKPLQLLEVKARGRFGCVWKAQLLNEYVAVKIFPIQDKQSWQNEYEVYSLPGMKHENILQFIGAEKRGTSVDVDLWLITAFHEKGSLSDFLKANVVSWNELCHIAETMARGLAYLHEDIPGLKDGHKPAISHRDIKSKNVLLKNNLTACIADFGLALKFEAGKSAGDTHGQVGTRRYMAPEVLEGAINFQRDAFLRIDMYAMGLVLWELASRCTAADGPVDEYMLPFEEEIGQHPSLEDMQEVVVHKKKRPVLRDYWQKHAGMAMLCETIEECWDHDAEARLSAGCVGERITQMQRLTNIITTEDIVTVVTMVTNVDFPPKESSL
Sequence of MKNK2 (MNK2) (Q9HBH9 whole entry, species assumed): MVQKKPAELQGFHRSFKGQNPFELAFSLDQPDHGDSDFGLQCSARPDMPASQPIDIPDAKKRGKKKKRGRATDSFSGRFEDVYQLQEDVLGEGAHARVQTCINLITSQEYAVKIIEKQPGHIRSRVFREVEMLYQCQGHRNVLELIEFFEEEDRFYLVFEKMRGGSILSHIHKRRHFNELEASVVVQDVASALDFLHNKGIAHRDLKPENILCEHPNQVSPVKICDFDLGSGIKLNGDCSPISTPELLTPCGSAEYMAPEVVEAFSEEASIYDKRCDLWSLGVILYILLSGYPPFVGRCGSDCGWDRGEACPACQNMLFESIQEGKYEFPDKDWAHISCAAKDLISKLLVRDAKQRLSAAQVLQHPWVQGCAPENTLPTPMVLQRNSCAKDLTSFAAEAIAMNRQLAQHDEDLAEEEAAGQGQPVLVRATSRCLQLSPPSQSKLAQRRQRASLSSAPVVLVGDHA
Sequence of MAPKAPK2 (P49137 whole entry): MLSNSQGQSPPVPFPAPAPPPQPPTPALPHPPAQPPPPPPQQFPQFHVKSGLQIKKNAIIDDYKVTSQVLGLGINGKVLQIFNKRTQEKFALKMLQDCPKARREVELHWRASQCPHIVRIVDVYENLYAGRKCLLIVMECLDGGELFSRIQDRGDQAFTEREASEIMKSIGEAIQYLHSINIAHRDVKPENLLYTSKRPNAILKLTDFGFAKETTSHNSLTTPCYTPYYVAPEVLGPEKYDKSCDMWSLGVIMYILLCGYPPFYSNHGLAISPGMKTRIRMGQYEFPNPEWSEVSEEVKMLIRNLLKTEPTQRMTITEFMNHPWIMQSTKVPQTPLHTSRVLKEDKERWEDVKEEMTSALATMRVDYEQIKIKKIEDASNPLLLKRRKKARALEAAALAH
Sequence of ERBB2 (HER2) (P04626 23-1255): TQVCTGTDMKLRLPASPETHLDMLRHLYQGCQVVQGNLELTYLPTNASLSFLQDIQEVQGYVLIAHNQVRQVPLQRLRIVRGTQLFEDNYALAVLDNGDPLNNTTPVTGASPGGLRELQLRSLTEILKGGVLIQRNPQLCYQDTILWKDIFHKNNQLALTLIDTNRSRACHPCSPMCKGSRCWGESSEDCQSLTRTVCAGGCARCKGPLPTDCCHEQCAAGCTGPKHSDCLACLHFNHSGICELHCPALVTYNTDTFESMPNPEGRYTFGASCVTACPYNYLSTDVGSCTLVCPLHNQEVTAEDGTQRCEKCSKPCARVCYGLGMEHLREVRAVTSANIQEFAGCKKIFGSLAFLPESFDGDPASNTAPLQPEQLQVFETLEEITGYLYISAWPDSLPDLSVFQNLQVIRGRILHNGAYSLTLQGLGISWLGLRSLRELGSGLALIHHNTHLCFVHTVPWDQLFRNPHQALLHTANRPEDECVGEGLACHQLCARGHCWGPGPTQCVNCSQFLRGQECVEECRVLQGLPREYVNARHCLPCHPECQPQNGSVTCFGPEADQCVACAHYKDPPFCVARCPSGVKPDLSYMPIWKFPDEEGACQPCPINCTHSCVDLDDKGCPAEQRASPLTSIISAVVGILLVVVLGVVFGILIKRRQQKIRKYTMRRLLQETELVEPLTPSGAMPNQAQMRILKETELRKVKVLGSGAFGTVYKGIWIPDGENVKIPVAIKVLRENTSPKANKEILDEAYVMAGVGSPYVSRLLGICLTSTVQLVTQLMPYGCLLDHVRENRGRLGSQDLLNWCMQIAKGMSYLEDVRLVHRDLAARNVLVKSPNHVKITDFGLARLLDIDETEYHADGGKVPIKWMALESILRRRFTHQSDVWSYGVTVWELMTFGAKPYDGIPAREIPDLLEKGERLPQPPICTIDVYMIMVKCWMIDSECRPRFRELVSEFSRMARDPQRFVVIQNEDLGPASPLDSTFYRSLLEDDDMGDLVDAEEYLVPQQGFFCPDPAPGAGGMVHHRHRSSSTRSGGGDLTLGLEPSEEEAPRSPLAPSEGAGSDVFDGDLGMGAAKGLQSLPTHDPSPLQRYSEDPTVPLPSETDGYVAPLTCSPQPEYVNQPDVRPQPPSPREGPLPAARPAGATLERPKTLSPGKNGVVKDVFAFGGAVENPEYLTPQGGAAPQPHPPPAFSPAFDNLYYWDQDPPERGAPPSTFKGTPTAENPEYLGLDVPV
Sequence of ADCK3 (Q8NI60 163-647): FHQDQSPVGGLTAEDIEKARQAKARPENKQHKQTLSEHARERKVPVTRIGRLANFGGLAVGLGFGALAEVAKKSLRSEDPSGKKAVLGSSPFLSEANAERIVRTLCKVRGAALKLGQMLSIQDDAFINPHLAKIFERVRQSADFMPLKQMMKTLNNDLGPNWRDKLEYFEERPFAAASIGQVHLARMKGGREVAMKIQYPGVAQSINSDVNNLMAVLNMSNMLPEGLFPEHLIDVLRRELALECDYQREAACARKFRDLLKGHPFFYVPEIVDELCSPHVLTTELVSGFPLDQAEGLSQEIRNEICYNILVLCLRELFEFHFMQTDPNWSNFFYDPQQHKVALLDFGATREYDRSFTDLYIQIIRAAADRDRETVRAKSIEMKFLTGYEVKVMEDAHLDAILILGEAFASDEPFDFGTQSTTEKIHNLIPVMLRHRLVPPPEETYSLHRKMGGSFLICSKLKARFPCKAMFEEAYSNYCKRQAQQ

C#CCOc1ccc(Nc2ncc(Cl)c(Nc3ccccc3NC(=O)C=C)n2)c(OC)c1 [Compound 6]
inhibition at 1 µM [1, 16]: 5%
Inhibition at 1 µM (%) ([1]; ACVR2A, 1 µM, LanthaScreen Binding, listed as WEL028, 1 µM): 6%
inhibition at 1 µM ([1]; read-out: Inhibition at 1 µM (%), ACVR2A, 1 µM, LanthaScreen Binding): 4%
Increase in CD11b expression ([2]; 100 nM WEL028): 3%
Percentage of CD11b-positive cells ([2]; 100 nM WEL028): minimally affected
CD11b expression ([2]; 1 µM WEL028): completely failed to express CD11b
CD11b-positive cells (%) ([2]; WEL028 100 nM): 93.479% and 95.735% and 92.126%
CD11b-positive cells (%) ([2]; WEL028 1 µM): 19.047% and 18.635% and 20.613%
Selectivity window against the residual 354 kinases ([3]; 1 μM screen vs FES^S700C): > 100 fold
Number of kinases with >50% inhibition ([3]; out of 380 tested kinases, 1 μM, 1 h preincubation): 26
CD11b-positive cells (%) ([4]; WEL028 100 nM): 79.481% and 79.680% and 76.989%
CD11b-positive cells (%) ([4]; WEL028 1 µM): 1.972% and 1.548% and 2.205%
inhibition at 1 µM [5, 16]: 7%
inhibition at 1 µM ([5]; read-out: Inhibition at 1 µM (%), ICK, 1 µM, LanthaScreen Binding): 8%
Inhibition at 1 µM (%) ([6]; PIP5K1C, Adapta, ATP 10, listed as WEL028, 1 µM): 1%
inhibition at 1 µM ([6]; read-out: Inhibition at 1 µM (%), PIP5K1C, Adapta, ATP 10): 2%
inhibition at 1 µM [7, 16]: 1%
Inhibition at 1 µM (%) [7]: 3%
Inhibition at 1 µM (%) ([7]; listed as WEL028, 1 µM): -1%
pIC50 [8]: 7.00
inhibition at 1 µM [8, 16]: 93%
inhibition at 10 µM ([8]; 1 h, log[inhibitor] (M) -5.00, LanthaScreen Binding): 83%
inhibition at 3.311 µM ([8]; 1 h, log[inhibitor] (M) -5.48, LanthaScreen Binding): 97%
inhibition at 1.122 µM ([8]; 1 h, log[inhibitor] (M) -5.95, LanthaScreen Binding): 94%
inhibition at 0.3715 µM ([8]; 1 h, log[inhibitor] (M) -6.43, LanthaScreen Binding): 82%
inhibition at 0.123 µM ([8]; 1 h, log[inhibitor] (M) -6.91, LanthaScreen Binding): 54%
inhibition at 0.0138 µM ([8]; 1 h, log[inhibitor] (M) -7.86, LanthaScreen Binding): 13%
inhibition at 0.0004898 µM ([8]; 1 h, log[inhibitor] (M) -9.31, LanthaScreen Binding): 4%
Apparent fold selectivity ([8]; IC50 on that kinase divided by IC50 on FES^S700C): 23 fold
Inhibition at 1 µM (%) ([8]; MKNK2 (MNK2), 1 µM, LanthaScreen Binding, listed as WEL028, 1 µM): 96%
inhibition at 1 µM ([8]; read-out: Inhibition at 1 µM (%), MKNK2 (MNK2), 1 µM, LanthaScreen Binding): 89%
inhibition at 1 µM [9, 16]: 3%
Inhibition at 1 µM (%) ([9]; FGFR1, 1 µM, ZLYTE, ATP Km app, listed as WEL028, 1 µM): 5% and 1%
inhibition at 1 µM [10, 16]: 2%
Inhibition at 1 µM (%) [10]: -2%
Inhibition at 1 µM (%) ([10]; listed as WEL028, 1 µM): 6%
inhibition at 1 µM [11, 16]: 7%
Inhibition at 1 µM (%) ([11]; MAPKAPK2, 1 µM, ZLYTE, ATP Km app, listed as WEL028, 1 µM): 5%
inhibition at 1 µM ([11]; read-out: Inhibition at 1 µM (%), MAPKAPK2, 1 µM, ZLYTE, ATP Km app): 8%
Apparent fold selectivity [12]: 25 fold
pIC50 [13]: 7.00
inhibition at 1 µM [13, 16]: 94%
inhibition at 10 µM ([13]; 1 h, log[inhibitor] (M) -5.00, ZLYTE, ATP 100): 98%
inhibition at 3.311 µM ([13]; 1 h, log[inhibitor] (M) -5.48, ZLYTE, ATP 100): 100%
inhibition at 1.122 µM ([13]; 1 h, log[inhibitor] (M) -5.95, ZLYTE, ATP 100): 96%
inhibition at 0.3715 µM ([13]; 1 h, log[inhibitor] (M) -6.43, ZLYTE, ATP 100): 65%
inhibition at 0.123 µM ([13]; 1 h, log[inhibitor] (M) -6.91, ZLYTE, ATP 100): 53%
inhibition at 0.04074 µM ([13]; 1 h, log[inhibitor] (M) -7.39, ZLYTE, ATP 100): 28%
inhibition at 0.0138 µM ([13]; 1 h, log[inhibitor] (M) -7.86, ZLYTE, ATP 100): 15%
inhibition at 0.001514 µM ([13]; 1 h, log[inhibitor] (M) -8.82, ZLYTE, ATP 100): 3%
Inhibition at 1 µM (%) ([13]; BRAF, 1 µM, ZLYTE, ATP 100, listed as WEL028, 1 µM): 97%
inhibition at 1 µM ([13]; read-out: Inhibition at 1 µM (%), BRAF, 1 µM, ZLYTE, ATP 100): 90%
inhibition at 1 µM [14, 16]: 0%
Inhibition at 1 µM (%) ([14]; CDK16 (PCTK1)/cyclin Y, 1 µM, LanthaScreen Binding, listed as WEL028, 1 µM): -1%
inhibition at 1 µM ([15]; 1 h): 2%
inhibition at 1 µM ([15]; read-out: Inhibition at 1 µM (%)): 2%
